According to US5070089A, “Therapeutic agent for liver disease and piperazine derivatives” (Nippon Chemiphar Co., Ltd., priority 1988, dated 1991):
Where two headings read alike, the source gives them in different places.

Tests used:
[1] = test system: acute liver disease caused by CCl4 (Wister-strain rat); test: Preventive action on deviation of GOT value and GPT value in vivo using model of acute liver disease caused by CCl4
Procedure: CCl4 in olive oil (concentration: 50%) was orally administered to a Wister-strain rat (body weight: 170-180 g) fasted for 24 hrs., at a dose of 1 ml/kg, to cause acute liver disease. […] For control group, 1.0% methylcellulose (MC) was administered in place of the piperazine derivative. For normal group, a simple olive oil was administered in place of the CCl4 -containing olive oil. For the administration, the piperazine derivative was employed in the form of a dispersion in aqueous MC solution (concentration: 1.0%). At 24 hours after the administration of CCl4, the rat was abdominally sectioned under ether anesthesia. From the abrominal large vein, a blood was collected. The collected blood was subjected to centrifugal separation at 3,000 r.p.m. for 10 min to obtain its plasma. […] The results are set forth in Table 4 in terms of a ratio (%) of suppression (prevention) of GOT or GPT. In Table 4, "***" means 90-100%, "**" means 60-90%, and "*" means 30-60%. The ratio of suppression is calculated according to the following equation. [formula]

[2] = test system: lipid peroxidation in rat hepatocyte; test: Inhibitory action on lipid peroxidation (rat hepatocyte, TBA color formation, absorbance at 530 nm); format: biochemical; settings: 37° C., 1 hour; for Inhibition ratio (at Final Concentration of Tested Compound) 10^-4 M: final concentration 10^-4 M, 100 µM; for Inhibition ratio (at Final Concentration of Tested Compound) 10^-5 M: final concentration 10^-5 M, 10 µM
Procedure: A hepatocyte was isolated from rat according to the method of Ui et al (Hiroshi Oka and Tadao Ui: "Isolated Cells--Experimental and Application",page 91). The determination of lipid peroxidation was performed using a died hepatocyte which had been frozen at -85° C. and stored at the temperature and which was melted when the experimental was done. […] The centrifugal tube was shaken at 37° C. for 1 hour for performing a reaction, and then placed into an ice-water bath to terminate the reaction. […] The centrifugal tube was taken out of the ice-water bath and placed in a water bath (kept at 95°-98° C.). The content of the tube was heated in the bath for 1 hour for developing color-formation. After the heating was complete, the content of the tube was cooled and subjected to centrifugal separation. The inhibitory action on lipid peroxidation of the sample was determined by measuring absorbance at 530 nm. The determined inhibitory action is expressed inhibition ratio by percent (%) calculated by the following equation: [formula] In Table 3, the number of the tested compound corresponds to the identical number set forth in Tables 1 and 2 for identifying the compounds of the invention.

[3] = Toxicity by oral administration; format: in vivo; settings: even at 1,600 mg/kg by oral administration
Procedure: Further, it has been experimentally confirmed that all of piperazine derivatives of the invention tested for toxicity (Compound Nos. 4, 5, 22, 23, 32, 33, 38, 75 and 113 indicated in Tables 1 and 2) cause no death even at 1,600 mg/kg by oral administration.

[4] = Rattus norvegicus, po, 24 h, read-out: ratio (%) of suppression (prevention) of GOT
[5] = Rattus norvegicus, po, 24 h, read-out: ratio (%) of suppression (prevention) of GPT
[6] = rat, 30 mg/kg, 3 hour before oral CCl4, plasma GOT at 24 hours after CCl4, read-out: ratio (%) of suppression (prevention) of GOT
[7] = rat, 30 mg/kg, 3 hour before oral CCl4, plasma GPT at 24 hours after CCl4, read-out: ratio (%) of suppression (prevention) of GPT

Row | Compound | inhibition in vivo at 30 mg/kg [1, 4] | inhibition in vivo at 30 mg/kg [1, 5] | Inhibition ratio (at Final Concentration of Tested Compound) 10^-4 M [2] | Inhibition ratio (at Final Concentration of Tested Compound) 10^-5 M [2] | death in toxicity test [3] | inhibition in vivo at 30 mg/kg [1, 6] | inhibition in vivo at 30 mg/kg [1, 7]
1 | CSC(=S)N1CCN(Cc2ccccc2O)CC1 [Compound 4, Methyl 4-(2-hydroxybenzyl)-1-piperazinecarbodithioate] | 90 to 100% | 90 to 100% | 100% | 96.6% | no death |  | 
2 | COc1ccccc1CN1CCN(C(=S)SC)CC1 [Compound 5, Methyl 4-(2-methoxybenzyl)-1-piperazinecarbodithioate] | 90 to 100% | 90 to 100% |  |  | no death |  | 
3 | CSC(=S)N1CCN(Cc2cc(O)ccc2O)CC1.Cl [Compound 16, Methyl 4-(2,5-dihydroxybenzyl)-1-piperazinecarbodithioate hydrochloride] |  |  | 73.4% | 69.4% |  | 90 to 100% | 90 to 100%
4 | COc1cccc(CN2CCN(C(=S)SC)CC2)c1OC [Compound 22, Methyl 4-(2,3-dimethoxybenzyl)-1-piperazinecarbodithioate] | 90 to 100% | 60 to 90% | 100% | 92.0% | no death |  | 
5 | COc1ccc(OC)c(CN2CCN(C(=S)SC)CC2)c1 [Compound 23, Methyl 4-(2,5-dimethoxybenzyl)-1-piperazinecarbodithioate] | 90 to 100% | 90 to 100% | 100% | 60.6% | no death |  | 
6 | CSC(=S)N1CCN(Cc2ccc(O)c(O)c2O)CC1 [Compound 32, Methyl 4-(2,3,4-trihydroxybenzyl)-1-piperazinecarbodithioate] | 60 to 90% | 60 to 90% | 87.8% | 87.4% | no death |  | 
7 | COc1ccc(CN2CCN(C(=S)SC)CC2)c(OC)c1OC [Compound 33, Methyl 4-(2,3,4-trimethoxybenzyl)-1-piperazinecarbodithioate] | 90 to 100% | 60 to 90% |  |  | no death |  | 
8 | COc1cc(C=O)cc(CN2CCN(C(=S)SC)CC2)c1O [Compound 38, Methyl 4-(5-formyl-2-hydroxy-3-methoxybenzyl)-1-piperazinecarbodithioate] | 60 to 90% | 60 to 90% |  |  | no death |  | 
9 | CCCOC(=O)c1cc(O)c(O)c(O)c1CN1CCN(C(=S)SC)CC1 [Compound 44, Methyl 4-(6-propyloxycarbonyl-2,3,4-trihydroxybenzyl)-1-piperazinecarbodithioate] |  |  | 96.6% | 96.0% |  | 90 to 100% | 60 to 90%
10 | COc1c(O)c(C)c(CN2CCN(C(=S)SC)CC2)c(O)c1OC [Compound 47, Methyl 4-(2,5-dihydroxy-3,4-dimethoxy-6-methylbenzyl)-1-piperazinecarbodithioate] |  |  | 100% | 56.1% |  | 90 to 100% | 90 to 100%
11 | COc1c(OC(C)=O)c(C)c(CN2CCN(C(=S)SC)CC2)c(OC(C)=O)c1OC [Compound 48, Methyl 4-(2,5-diacetoxy-3,4-dimethoxy-6-methylbenzyl)-1-piperazinecarbodithioate] |  |  | 96.2% | 97.5% |  | 60 to 90% | 60 to 90%
12 | CSC(=S)N1CCN(CC(O)c2ccc(O)c(O)c2)CC1 (stereo not shown) [Compound 73, Methyl 4-{2-(3,4-dihydroxyphenyl)-2-hydroxy}ethyl-1-piperazinecarbodithioate] |  |  | 88.4% | 44.5% |  | 60 to 90% | 60 to 90%
13 | COc1ccc(CC(=O)N2CCN(C(=S)SC)CC2)c(OC)c1OC [Compound 75, Methyl 4-(2,3,4-trimethoxyphenylacetyl)-1-piperazinecarbodithioate] | 60 to 90% | 60 to 90% |  |  | no death |  | 
14 | CSC(=S)N1CCN(CC2=C(C)C(=O)C(C)=C(C)C2=O)CC1 [Compound 113, Methyl 4-(3,5,6-trimethyl-1,4-benzoquinonylmethyl)-1-piperazinecarbodithioate] | 90 to 100% | 60 to 90% |  |  | no death |  | 
